Article PMC12111156, “Nitazoxanide Analogs: Synthesis, In Vitro Giardicidal Activity, and Effects on Giardia lamblia Metabolic Gene Expression” (International Journal of Molecular Sciences, 2025)
pIC50: −log10 of the molar value.

Tests used:
HT-29 cells = test: Cytotoxicity, XTT viability assay, HT-29; details: CC50 HT-29 / IC50 trophozoite ATCC strain 30957
Experimental: (§1) The cytotoxicity assay was performed to evaluate the effect of the selected compounds on human cells. Colon cells were used because they are cell lines like those present in the microenvironment where G. lamblia colonizes, which is the small intestine of the host. The assay was performed using the human cell lines Caco-2 (ATCC HTB-37) and HT-29 (ATCC […]). Cell viability was determined using the Cell Proliferation Kit II (XTT, St. Louis, MO, EE. UU.). A cell suspension of 2 × 10^3 cells/mL was prepared in Dulbecco’s modified Eagle’s medium (DMEM) supplemented with 10% inactivated fetal bovine serum and an antibiotic (1% penicillin/streptomycin, 5000 U/mL, in a volume of 100 µL). The suspension was added to a 96-well plate. The plates were incubated for 24 h at 37 °C in a 5% CO2 atmosphere. […] The cells were incubated for 48 h at 37 °C in a 5% CO2 atmosphere. Cell viability was determined using the following steps. The medium in each well was replaced with 100 µL of fresh medium, and 50 µL of XTT labeling mix was added per well. The reaction was incubated for four hours at 37 °C and 5% CO2. After incubation, the absorbance of the samples on the plate was measured at 450 nm. Each compound was assayed in triplicate in three independent experiments. CC50 values (μM) were determined using the nonlinear regression function of GraphPad Prism version 8 for Windows.

[1] = Cytotoxicity, XTT viability assay, HT-29; details: human, HT-29 cells, CC50 HT-29, 48 h, XTT
Experimental: as §1

[2] = tested on: G6PD::6PGL enzyme of G. lamblia; details: cited from earlier work
[3] = tested on: G. lamblia strain resistant to nitazoxanide; test: Giardicidal activity in nitazoxanide-resistant strain (trypan blue count); assay type: cell-based; details: Giardia duodenalis, 48 h, read-out: IC50 G. lamblia (NTZ Resistant)
Experimental: A pre-culture at confluence was used as a starting point, and a concentration–response curve was plotted using an initial compound concentration of 25 μM in a final volume of 1.5 mL of TYI-S-33 medium, followed by serial dilutions of the compound. Each treatment was inoculated with 1.5 × 10^5 trophozoites and incubated for 48 h at 37 °C. At the end of the incubation, the number of trophozoites was determined using the trypan blue assay and by counting in a Neubauer chamber. The viability percentage at each compound concentration was calculated using the negative control as a reference.

[4] = tested on: G. lamblia strain ATCC 30957; test: Viability of Giardia lamblia trophozoite culture (trypan blue count); assay type: cell-based
Experimental: Viability analysis was performed on G. lamblia strain ATCC 30957 grown in TYI-S-33 medium supplemented with 10% fetal bovine serum (FBS) and an antibiotic. Pre-culture was performed in 16 × 150 mm borosilicate tubes with a medium inoculated with 2 × 10^5 trophozoites and incubated at 37 °C for 48 h. For the recovery of the trophozoites, the vial was incubated in ice for 8 min and centrifuged for 6 min at 2000 rpm. The concentrated trophozoites were suspended in 1 mL of phosphate-buffered saline (PBS), and the number of trophozoites was counted by placing a 1:1 volume ratio of cell culture and trypan blue dye (4 g/L); then, a homogeneous drop of the mixture was taken and placed in the Neubauer chamber, and the total cells were counted.
The curves were plotted for concentrations of 0–50 µM of each compound. The assay was performed by placing 1.5 × 10^5 cells in 1.5 mL microcentrifuge tubes with a supplemented medium and different concentrations of each compound (0–50 µM). The negative control was performed under the same conditions without a compound, and the drugs NTZ and MTZ were used as positive controls. The samples were incubated for 48 h at 37 °C. At the end of the incubation, the cell viability count was performed using the trypan blue technique. The viability calculation was performed following the formula nv/(nv + nm), where nv represents the live cells and nm represents the dead cells; the viability value obtained was expressed as a percentage. The IC50 value of each compound was determined using the IC50 Calculator software (https://www.aatbio.com/tools/ic50-calculator).

G. lamblia trophozoites = test: Cell damage by transmission electron microscopy; assay type: cell-based, Giardia lamblia; details: IC50 concentration, 24 h
Experimental: The trophozoites were incubated for 24 h at 37 °C and then collected by cooling them in an ice bath for 10 min and centrifuging at 2000 rpm for 7 min. The samples were sent for preparation and observation at the Instituto de Fisiología Celular, UNAM. The analysis was performed using a JEOL-JEM-1200 transmission electron microscope (JEOL LTD, Tokyo, Japan) equipped with a GATAN CCD camera at the Imaging Unit of the Institute of Cellular Physiology, UNAM.

[5] = Cytotoxicity, XTT viability assay, Caco-2; details: human
Experimental: as §1

CCCCC(=O)Nc1ncc([N+](=O)[O-])s1 [FLP-2, N-(5-Nitro-1,3-thiazol-2-yl)pentanamide]
Selectivity index (CC50/IC50) HT-29 (HT-29 cells): 531
CC50 at 48 h [1]: 1910 µM
Inhibition of the G6PD::6PGL enzyme (in words) [2]: inhibitors of the G6PD enzyme
pIC50 [3]: 6.43
Inhibition of growth of G. lamblia parasite culture ([4]; concentration not given): more than 98%
Relative potency compared with NTZ ([4]; ratio of IC50 values, ATCC strain): 1.2 times
Ultrastructural effect on trophozoites (TEM) (G. lamblia trophozoites): significant morphological alterations
selectivity ratio at 48 h ([5]; Caco-2): 884
CC50 at 48 h ([5]; Caco-2, CC50 Caco-2, 48 h, XTT): 3180 µM
